From PMC4661905, “A Mechanism of O-Demethylation of Aristolochic Acid I by Cytochromes P450 and Their Contributions to This Reaction in Human and Rat Livers: Experimental and Theoretical Approaches” (International Journal of Molecular Sciences, 2015)

Columns and labels:
CYP1A1 [1] = assay: Contribution of CYP to AAI oxidation in human liver; format: in vitro ADME; conditions: from Supersomal velocities with cytochrome b5 and CYP expression levels
Experimental: (§1) In order to calculate the contributions of individual CYPs to AAI oxidation in human and rat livers, we utilized the velocities of AAI oxidation to AAIa by the Supersomal CYP enzyme systems containing cytochrome b5 (Figure 2) in the combination with the data on the expression levels of CYPs in human and rat livers. The contributions of these enzymes were calculated by relative activity factor because the activities of CYP in Supersomes™ should be considered in addition to the relative contents of CYPs in the livers. Therefore, the contributions of each CYP that oxidizes AAI in livers were calculated by dividing of the relative activity of each of such CYPs oxidizing AAI [r.a.cypi] (rate of AAI oxidation multiplied by amounts of this CYP in tissues examined), by the total relative activities (∑[r.a.cypi]) of all CYPs oxidizing this substrate. Of human liver CYPs, CYP3A4 is the major enzyme present in this human organ (~30% of the CYP hepatic complement), followed by CYP2C9 and 1A2 (~15% and ~13%, respectively), while CYP2C19, 2E1 2A6, 2D6, 2C8, and 3A5 are present in human liver in levels of the range of ~8.5%–~2.5% of the liver CYPs (see [58] for an overview). CYPs of the 2C subfamily (CYP2C6, 2C11, 2C12, and 2C13) are the major enzymes expressed in rat livers accounting of ~55% of the CYP complement. Of the CYP2C complement, ~50% and ~20% correspond to CYP2C11 and 2C6, respectively. Of the other CYPs, CYP2E1, 3A, 2D, 2A, 2B, and 1A enzymes are also present in rat livers, expressed in levels of ~15%, ~10%, ~7%, ~6%, ~5%, and ~2%, respectively.

CYP1A2 = assay: as above; format: in vitro ADME; conditions: from Supersomal velocities with cytochrome b5 and CYP expression levels
Experimental: as §1

CYP1B1 = assay: as above; format: in vitro ADME
Experimental: as §1

CYP2B6 = assay: as above; format: in vitro ADME
Experimental: as §1

CYP2C19 = assay: as above; format: in vitro ADME
Experimental: as §1

CYP2C8 = assay: as above; format: in vitro ADME
Experimental: as §1

CYP2C9 [2] = assay: as above; format: in vitro ADME; conditions: from Supersomal velocities with cytochrome b5 and CYP expression levels
Experimental: as §1

CYP2D6 = assay: as above; format: in vitro ADME
Experimental: as §1

CYP2E1 = assay: as above; format: in vitro ADME
Experimental: as §1

CYP3A4 = assay: as above; format: in vitro ADME; conditions: from Supersomal velocities with cytochrome b5 and CYP expression levels
Experimental: as §1

CYP3A5 = assay: as above; format: in vitro ADME
Experimental: as §1

CYP1A subfamily = assay: Contribution of CYP to AAI oxidation in rat liver; format: in vitro ADME
Experimental: as §1

CYP1A1 [3] = assay: Contribution of CYP to AAI oxidation in rat liver; format: in vitro ADME
Experimental: as §1

CYP2C subfamily = assay: Contribution of CYP to AAI oxidation in rat liver; format: in vitro ADME
Experimental: as §1

CYP2C11 = assay: Contribution of CYP to AAI oxidation in rat liver; format: in vitro ADME
Experimental: as §1

CYP2C6 = assay: Contribution of CYP to AAI oxidation in rat liver; format: in vitro ADME
Experimental: as §1

human CYP1A2 = conditions: CYP1A2, with vs without cytochrome b5; cited from earlier work
CYP2C9 [4] = conditions: CYP2C9, with vs without cytochrome b5; cited from earlier work
[5] = tested on: CYP enzymes of liver microsomes that oxidise (demethylate) AAI to AAIa; assay: Effect of CYP inhibitors on AAI oxidation to AAIa by human liver microsomes; format: in vitro ADME; conditions: pH 7.4, probe AAI (10 μM), inhibitor 10 μM equimolar to AAI (10 μM), 0.1 nmol CYP, mean ± SD, n = 3, NI = no inhibition, read-out: AAIa Formation (% of Control without Inhibitor) Human Microsomes
Experimental: (§2) Incubation mixtures (250 μL) contained 100 mM potassium phosphate buffer (pH 7.4), 1 mM NADPH, 1 mg human or rat liver microsomal protein and 10 μM AAI [30, 43]. […] Control incubations were performed (i) without microsomal proteins; (ii) without NADPH; or (iii) without AAI. […] For Supersomes™, incubation mixtures (final volume 250 μL) consisted of 100 mM potassium phosphate buffer (pH 7.4), 1 mM NADP^+, 10 mM MgCl2, 10 mM D-glucose 6-phosphate, 1 U/mL D-glucose 6-phosphate dehydrogenase (NADPH-generating system), 50 nM CYPs in Supersomes™, and 10 μM AAI. Supersomes™ with POR alone were utilized as controls. AAI and its metabolites (i.e., AAIa) were extracted from incubation mixtures with 2 × 1 mL of ethyl acetate and evaporated to dryness; residues were dissolved in 30 μL of methanol and analyzed with reverse-phase HPLC as described.
(§3) Compounds were dissolved in 2.5 μL methanol (except for DDTC that was dissolved in distilled water) to yield final concentrations of 10 μM in the incubation mixtures. Inhibitors (10 μM) were incubated at 37 °C for 10 min with the NADPH-generating system prior to addition of 10 μM AAI, and then incubated for an additional 20 min at 37 °C. AAIa formation was analyzed by HPLC as described above.

[6] = tested on: CYP enzymes of liver microsomes that oxidise (demethylate) AAI to AAIa; assay: Effect of CYP inhibitors on AAI oxidation to AAIa by rat liver microsomes; format: in vitro ADME; conditions: male, Wistar, pH 7.4, probe AAI (10 μM), inhibitor 10 μM equimolar to AAI (10 μM), 0.1 nmol CYP, mean ± SD, n = 3, NI = no inhibition, read-out: AAIa Formation (% of Control without Inhibitor) Rat Microsomes
Experimental: Microsomal fractions were prepared from livers of ten male Wistar rats (AnLab, Prague, Czech Republic) by differential centrifugation as described previously.
as §2, §3

With COc1cccc2c1cc([N+](=O)[O-])c1c(C(=O)O)cc3c(c12)OCO3 [AAI, aristolochic acid I] the “Contribution to AAI oxidation to AAIa” value (CYP1A1 [1]) was ~ 8.3%, the “Contribution to AAI oxidation to AAIa” value (CYP1A2) was ~ 47.5% and the “Contribution to AAI oxidation to AAIa” value (CYP1B1) was “negligible”. For the same compound, the “Contribution to AAI oxidation to AAIa” value (CYP2B6) was “negligible”, the “Contribution to AAI oxidation to AAIa” value (CYP2C19) was ~ 0.6% and the “Contribution to AAI oxidation to AAIa” value (CYP2C8) was ~ 1.0%. For the same compound, the “Contribution to AAI oxidation to AAIa” value (CYP2C9 [2]) was ~ 15.8%, the “Contribution to AAI oxidation to AAIa” value (CYP2D6) was “negligible” and the “Contribution to AAI oxidation to AAIa” value (CYP2E1) was ~ 1.1%. For the same compound, the “Contribution to AAI oxidation to AAIa” value (CYP3A4) was ~ 10.5%, the “Contribution to AAI oxidation to AAIa” value (CYP3A5) was “negligible” and the “Contribution to AAI oxidation to AAIa” value (CYP1A subfamily) was ~ 17%. The “Contribution to AAI oxidation to AAIa” value (CYP1A1 [3]) was ~ 1.7%, the “Contribution to AAI oxidation to AAIa” value (CYP2C subfamily) was ~ 83% and the “Contribution to AAI oxidation to AAIa” value (CYP2C11) was ~ 42%. For the same compound, the “Contribution to AAI oxidation to AAIa” value (CYP2C6) was ~ 17%, the “Increase in AAIa formation by cytochrome b5” value (human CYP1A2) was “not significant” and the “Increase in AAIa formation by cytochrome b5” value (CYP2C9 [4]) was “not significant”.

Work on CCN(CC)C(=S)S [DDTC, diethyldithiocarbamate] yielded an activity at 20 min, 10 μM [5] of 96 ± 5% and an activity at 20 min, 10 μM [6] of 52 ± 4%.

Cc1nc2c([nH]1)c(=O)n(C)c(=O)n2Cc1ccco1 [Furafylline, furafylline] showed an activity at 20 min, 10 μM [5] of 75 ± 4% and an activity at 20 min, 10 μM [6] of 84 ± 5%.

For C=C[C@H]1C[N@@]2CC[C@H]1C[C@@H]2[C@@H](O)c1ccnc2ccc(OC)cc12 [Quinidine, quinidine], the activity at 20 min, 10 μM [5] was > 100% and the activity at 20 min, 10 μM [6] was > 100%.

For Nc1ccc(S(=O)(=O)Nc2ccnn2-c2ccccc2)cc1 [Sulfaphenazole, sulfaphenazole], the activity at 20 min, 10 μM [5] was > 100% and the activity at 20 min, 10 μM [6] was 68 ± 3%.

O=c1cc(-c2ccccc2)oc2c1ccc1ccccc12 [α-Napththoflavone, α-Naphthoflavone] gave an activity at 20 min, 10 μM [5] of 89 ± 5% and an activity at 20 min, 10 μM [6] of 85 ± 5%.
